Values after ≈ are worked out from the molar mass of the structure shown. Read-outs that look alike come from different tables or passages of the source.
Assays:
[1] = cited from earlier work
[2] = Example 4: performance and water miscibility in presence of sodium percarbonate, undissolved TAED at T=0 and T=6 months; format: physicochemical
Procedure: The TAED:Sodium percarbonate ratio used for the study was 1:2.5 w/w. […] This 100 mL solution was either used as it was or it was further diluted to with 900 mL water to make a 1 L sample.

[3] = Example 3: performance and water miscibility in presence of sodium percarbonate, weight of remaining material
Procedure: The experiment was carried out to check the performance and water miscibility of TAED in presence of sodium percarbonate. 1 gram of TAED with 2.5 gram of sodium percarbonate was added 1 litre water and stirred at 500 rpm using overhead stirrer. In Experiment set up the amount of water used for the study was 1 litre.

CC(=O)N(CCN(C(C)=O)C(C)=O)C(C)=O [TAED (Commercially available), Tetraacetylethylenediamine]
solubility ([1]; 20° C.): 200 µg/mL (≈ 876 µM) | solubility [1]: around 200 mg/L | Undissolved TAED ([2]; 1 g TAED, 1 L, 1 min, T = 6 months (40° C., 75% relative humidity)): 90 mg | Undissolved TAED ([2]; 1 g TAED, 1 L, 4 min, T = 0): 60 mg | Undissolved TAED ([2]; 1 g TAED, 1 L, 4 min, T = 6 months (40° C., 75% relative humidity)): 60 mg | Undissolved TAED ([2]; 1 g TAED, 100 mL diluted to 1 L, 1 min, T = 0): 90 mg | Undissolved TAED ([2]; 1 g TAED, 100 mL water, stirring 1 min, T = 6 months (40° C., 75% relative humidity)): 150 mg | Undissolved TAED ([2]; 1 g TAED, 100 mL water, stirring 4 min, T = 0): 100 mg | Undissolved TAED ([2]; 1 g TAED, 100 mL water, stirring 4 min, T = 6 months (40° C., 75% relative humidity)): 100 mg | Undissolved TAED ([2]; 1 g TAED, sodium percarbonate 1:2.5 w/w, 100 mL water, stirring 1 min, T = 0): 150 mg | Undissolved TAED ([2]; 3 gram TAED, 1 litre, stirring 1 min, T = 0): 1.8 gram | Undissolved TAED ([2]; 3 gram TAED, 1 litre, stirring 1 min, T = 6 month): 1.8 gram | Undissolved TAED ([2]; 3 gram TAED, 1 litre, stirring 4 min, T = 0): 1.2 gram | Undissolved TAED ([2]; 3 gram TAED, 1 litre, stirring 4 min, T = 6 month): 1.2 gram | Undissolved TAED ([2]; 3 gram TAED, 100 ml water, stirring 1 min, T = 0): 2 gram | Undissolved TAED ([2]; 3 gram TAED, 100 ml water, stirring 1 min, T = 6 month): 2 gram | Undissolved TAED ([2]; 3 gram TAED, 100 ml water, stirring 4 min, T = 0): 1.8 gram | Undissolved TAED ([2]; 3 gram TAED, 100 ml water, stirring 4 min, T = 6 month): 1.8 gram | amount remained after 5 min ([3]; 100 ml water): 800 mg | amount remained after 5 min ([3]; 250 ml water): 750 mg | amount remained after 5 min ([3]; 500 ml water): 690 mg

Source: US12692461B2, “Composite form of tetraacetylenediamine” (ONE1STAR SOLUTIONS LIMITED, priority 2020, dated 2026)
